Key:
cultured neurons [1] = test: Neuron health / cell death in treated cultures; format: cell-based, mouse
cultured neurons [2] = test: Affymetrix GeneChip expression in cultured neurons; format: cell-based
Ube3a-YFP protein = test: Western blot of Ube3a-YFP protein in cortical neurons; format: cell-based, mouse; details: 10 μM for 72 h
Method: (§1) Embryonic day 13.5 to 15.5 mice that encode the paternal Ube3a-YFP transgene or Ube3a^m−/p+ mice (i.e., AS model mice) were identified and primary cortical neuronal cultures were obtained and plated in 6 well plates. […] To assess Ube3a-YFP protein levels, 7.5 ug of total protein lysates from Ube3a-YFP neurons were separated by 8% SDS-polyacrylamide gel electrophoresis, proteins were transferred to nitrocellulose membranes and immunoblotting was performed using a rabbit anti-GFP antibody (Novus) and Alexa Fluor 680 goat anti-rabbit IgG (Invitrogen). Ube3a-YFP protein bands were visualized by a LiCOR system and to control for protein loading, Ube3a-YFP protein levels were normalized to actin level detected in each sample. To assess Ube3a protein level, immunoblotting was performed using rabbit anti-Ube3a antibody (Abeam) and Alexa Fluor 680 goat anti-rabbit IgG (Invitrogen).
(§2) E13.5-15.5 primary cortical neurons from Ube3a-YFP, Ube3a-deficient, or wild-type mice were plated in 6-well plates. At DIV7, neurons were treated with drug or 0.1% DMSO for 72 h, and then total protein lysates were obtained by lysis buffer (1% Triton X-100, 5 mM EDTA, 0.15M NaCl, 10 mM Tris-HCl, pH 7.5, phosphatase inhibitor cocktails 1, protease inhibitor cocktail). […] To control for protein loading, UBE3A-YFP or UBE3A protein levels were normalized to actin levels detected in each sample.

[3] = system: Ube3a, Ube3a-ATS, Snrpn mRNA; test: Quantitative PCR of Ube3a, Ube3a-ATS and Snrpn in Ube3a m-/p+ neurons; format: cell-based, mouse; details: 300 nM, cultured neurons from Ube3a m−/p+ mice
Method: First strand cDNA synthesis was performed on 500 ng-2 μg total RNA using Superscript III reverse transcriptase (Invitrogen) primed with random hexamers. qPCR reactions used SYBR green (Invitrogen) and were run on a Rotorgene 3000 (Corbett Research). Standard curves and Ct-values were generated using Rotorgene analysis software version 6.0. Expression of Ube3a, Ube3a-ATS, Ipw and Snrpn were determined after normalization of each cDNA sample to expression levels of the housekeeping genes Rp122 and Actb.

Topoisomerase I = biological target: T1, Topoisomerase I (Mus musculus, UniProt Q04750); test: Topoisomerase depletion assay (free TOP1 by Western blot); format: cell-based; details: 300 nM, 72 h, cultured neurons
T1 construct: immunoblotted with an anti-Topoisomerase I antibody (Santa Cruz) to detect free Topoisomerase I; endogenous in cells; host or cells: DIV7 primary mouse cortical neurons (Ube3a m-/p+ and wild type)
T1 sequence (Q04750 1-767): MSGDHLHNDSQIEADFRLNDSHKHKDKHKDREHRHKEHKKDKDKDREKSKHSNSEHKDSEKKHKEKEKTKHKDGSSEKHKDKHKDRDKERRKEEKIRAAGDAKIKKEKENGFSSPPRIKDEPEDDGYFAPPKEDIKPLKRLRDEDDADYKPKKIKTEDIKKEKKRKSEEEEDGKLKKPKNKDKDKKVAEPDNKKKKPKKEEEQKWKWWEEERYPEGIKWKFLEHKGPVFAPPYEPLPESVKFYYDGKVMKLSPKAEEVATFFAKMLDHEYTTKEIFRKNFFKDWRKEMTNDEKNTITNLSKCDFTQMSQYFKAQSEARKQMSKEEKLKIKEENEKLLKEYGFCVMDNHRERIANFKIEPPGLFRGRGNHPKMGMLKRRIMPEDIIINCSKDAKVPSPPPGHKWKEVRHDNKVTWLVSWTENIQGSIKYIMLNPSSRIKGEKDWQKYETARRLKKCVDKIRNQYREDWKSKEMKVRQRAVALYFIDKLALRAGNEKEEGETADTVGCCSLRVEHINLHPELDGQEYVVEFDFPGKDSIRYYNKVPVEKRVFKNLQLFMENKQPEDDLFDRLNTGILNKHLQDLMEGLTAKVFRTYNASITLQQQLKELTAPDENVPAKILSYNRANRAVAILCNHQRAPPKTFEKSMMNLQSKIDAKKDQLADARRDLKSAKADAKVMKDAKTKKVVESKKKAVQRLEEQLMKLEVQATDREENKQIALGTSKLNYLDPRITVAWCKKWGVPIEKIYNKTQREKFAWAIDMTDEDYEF
Method: Cells were harvested and lysed on ice for 30 min in RIPA buffer (50 mM Tris-HCl, 150 mM NaCl, 1% Triton X-100, 0.5% sodium deoxycholate, 0.1% SDS, pH 7.4) to preserve topoisomerase cleavable complexes. Cell extracts were then centrifuged at 14,000 rpm at 4° C. to pellet insoluble debris. 30 μg of the cell supernatant was diluted in 2×SDS sample buffer and separated on a 7.5% SDS-PAGE gel, transferred to PVDF membrane, and immunoblotted with an anti-Topoisomerase I antibody (Santa Cruz) to detect free Topoisomerase I. An anti-β-Tubulin (Sigma) antibody was used as a loading control.

UBE3A protein = test: Western blot of endogenous UBE3A protein in Ube3a m-/p+ cortical neurons; format: cell-based, mouse; details: 300 nM, 72 h
Method: as §1, §2

[4] = system: Ube3a-ATS/Snrpn promoter region; test: Bisulfite sequencing of the Ube3a-ATS/Snrpn promoter region; format: cell-based, mouse; details: 300 nM, 72 h, cortical neurons
Method: Bisulfite conversion was performed on 200 ng genomic DNA using the MethylCode kit (Invitrogen). 1 μL of converted DNA was used as template for PCR. A first round of PCR was performed as described in Peery et al. using the W18 (5′-[…]) (SEQ ID NO:5) and W19 (5′-[…]) (SEQ ID NO:6) or W16 (5′-[…]) (SEQ ID NO:7) and W17 (5′-[…]) (SEQ ID NO:8) primer sets^38. A second semi-nested round of PCR was performed using 1 μL of the primary PCR reaction as template. For semi-nested PCR, the W18 primer was used with the nested W19-inside primer (5′-[…]) (SEQ ID NO:9), or the W16 primer was used with the nested W17-inside primer (5′-[…]) (SEQ ID NO:10). Products were separated on an agarose gel and extracted using the Qiaquick gel extraction kit (Qiagen). Purified DNA was ligated into the pGem-T Easy vector (Promega). Individual clones were amplified and sequenced.

| Compound | neuron density and health (DAPI counterstain) (cultured neurons [1]; 10 μM for 72 hr) | pyknotic nuclei versus vehicle (cultured neurons [1]; effective concentrations, cultures) | apoptotic pathways by microarray (cultured neurons [2]) | paternal Ube3a-YFP protein level (immunoblot) (Ube3a-YFP protein) | Ube3a mRNA expression [3] | Ube3a-ATS and Snrpn mRNA expression [3] | amount of free (unbound) TOP1 (Topoisomerase I) | UBE3A protein level in neurons from Ube3a m−/p+ mice (UBE3A protein) | methylation at the imprinting center [4] |
| --- | --- | --- | --- | --- | --- | --- | --- | --- | --- |
| CCc1c2c(nc3ccc(OC(=O)N4CCC(N5CCCCC5)CC4)cc13)-c1cc3c(c(=O)n1C2)COC(=O)[C@]3(O)CC [Irinotecan] | Neuron density and health is similar | a similar number of pyknotic nuclei | no evidence for drug-induced increases in apoptotic pathways | significantly increases paternal Ube3a-YFP protein levels |  |  |  |  |  |
| CC[C@@]1(O)C(=O)OCc2c1cc1n(c2=O)Cc2cc3c(CN(C)C)c(O)ccc3nc2-1 [Topotecan] |  |  |  |  | upregulated expression of Ube3a | downregulating expression of Ube3a-ATS and Snrpn | significantly reduce the amount of free TOP1 | restored UBE3A protein to wild-type levels | did not alter methylation at the imprinting center |

Reference: patent US10301630B2, “Methods and compositions for unsilencing imprinted genes” (The University of North Carolina at Chapel Hill, priority 2010, dated 2019)
